In ChEMBL document CHEMBL3045511, “Effects of Two Isoflavonoids, Osajin and Pomiferin, from Maclura pomifera for Growth and Feeding Disruption in Ostrinia nubilalis” (2001):

Assays:
Type in all cases: functional
Ostrinia nubilalis [1] = experiment: Antifeedant activity against Ostrinia nubilalis (European corn borer) larvae assessed as amount of weight gain by the insect at 0.20% of diet dry weight after 5 days relative to control
Ostrinia nubilalis [2] = experiment: Antifeedant activity against Ostrinia nubilalis (European corn borer) larvae assessed as amount of weight gain by the insect at 0.40% of diet dry weight after 5 days relative to control
Ostrinia nubilalis [3] = experiment: Antifeedant activity against Ostrinia nubilalis (European corn borer) larvae assessed as amount of weight gain by the insect at 0.60% of diet dry weight after 5 days relative to control
Ostrinia nubilalis [4] = experiment: Antifeedant activity against Ostrinia nubilalis (European corn borer) larvae assessed as amount of food consumed at 0.10% of diet dry weight after 5 days relative to control
Ostrinia nubilalis [5] = experiment: Antifeedant activity against Ostrinia nubilalis (European corn borer) larvae assessed as amount of food consumed at 0.20% of diet dry weight after 5 days relative to control
Ostrinia nubilalis [6] = experiment: Antifeedant activity against Ostrinia nubilalis (European corn borer) larvae assessed as amount of food consumed at 0.80% of diet dry weight after 5 days relative to control
Ostrinia nubilalis [7] = experiment: Antifeedant activity against Ostrinia nubilalis (European corn borer) larvae assessed as feeding rate at 0.80% of diet dry weight after 5 days relative to control
Ostrinia nubilalis [8] = experiment: Antifeedant activity against Ostrinia nubilalis (European corn borer) larvae assessed as amount excreted at 0.20% of diet dry weight after 5 days relative to control
Ostrinia nubilalis [9] = experiment: Antifeedant activity against Ostrinia nubilalis (European corn borer) larvae assessed as amount excreted at 0.80% of diet dry weight after 5 days relative to control
Ostrinia nubilalis [10] = experiment: Effect on growth of male Ostrinia nubilalis (European corn borer) larvae assessed as pupal weight at 0.10% of diet dry weight after 6 days relative to control
Ostrinia nubilalis [11] = experiment: Effect on growth of female Ostrinia nubilalis (European corn borer) larvae assessed as pupal weight at 1% of diet dry weight after 6 days relative to control
Ostrinia nubilalis [12] = experiment: Effect on growth of male Ostrinia nubilalis (European corn borer) larvae assessed as pupal weight at 1% of diet dry weight after 6 days relative to control
Ostrinia nubilalis [13] = experiment: Effect on growth of female Ostrinia nubilalis (European corn borer) larvae assessed as larval duration at 0.001% of diet dry weight after 6 days relative to control
Ostrinia nubilalis [14] = experiment: Effect on growth of male Ostrinia nubilalis (European corn borer) larvae assessed as larval duration at 0.001% of diet dry weight after 6 days relative to control
Ostrinia nubilalis [15] = experiment: Effect on growth of female Ostrinia nubilalis (European corn borer) larvae assessed as larval duration at 0.01% of diet dry weight after 6 days relative to control
Ostrinia nubilalis [16] = experiment: Effect on growth of male Ostrinia nubilalis (European corn borer) larvae assessed as larval duration at 0.01% of diet dry weight after 6 days relative to control
Ostrinia nubilalis [17] = experiment: Effect on growth of female Ostrinia nubilalis (European corn borer) larvae assessed as larval duration at 0.10% of diet dry weight after 6 days relative to control
Ostrinia nubilalis [18] = experiment: Effect on growth of male Ostrinia nubilalis (European corn borer) larvae assessed as larval duration at 0.10% of diet dry weight after 6 days relative to control
Ostrinia nubilalis [19] = experiment: Antifeedant activity against Ostrinia nubilalis (European corn borer) larvae assessed as excretion rate at 0.20% of diet dry weight after 5 days relative to control
Ostrinia nubilalis [20] = experiment: Antifeedant activity against Ostrinia nubilalis (European corn borer) larvae assessed as excretion rate at 0.40% of diet dry weight after 5 days relative to control
Ostrinia nubilalis [21] = experiment: Antifeedant activity against Ostrinia nubilalis (European corn borer) larvae assessed as excretion rate at 0.60% of diet dry weight after 5 days relative to control
Ostrinia nubilalis [22] = experiment: Antifeedant activity against Ostrinia nubilalis (European corn borer) larvae assessed as excretion rate at 0.80% of diet dry weight after 5 days relative to control
Ostrinia nubilalis [23] = experiment: Antifeedant activity against Ostrinia nubilalis (European corn borer) larvae assessed as growth rate at 0.10% of diet dry weight after 5 days relative to control
Ostrinia nubilalis [24] = experiment: Antifeedant activity against Ostrinia nubilalis (European corn borer) larvae assessed as growth rate at 0.20% of diet dry weight after 5 days relative to control
Ostrinia nubilalis [25] = experiment: Antifeedant activity against Ostrinia nubilalis (European corn borer) larvae assessed as growth rate at 0.40% of diet dry weight after 5 days relative to control
Ostrinia nubilalis [26] = experiment: Antifeedant activity against Ostrinia nubilalis (European corn borer) larvae assessed as growth rate at 0.60% of diet dry weight after 5 days relative to control
Ostrinia nubilalis [27] = experiment: Antifeedant activity against Ostrinia nubilalis (European corn borer) larvae assessed as growth rate at 0.80% of diet dry weight after 5 days relative to control
Ostrinia nubilalis [28] = experiment: Antifeedant activity against Ostrinia nubilalis (European corn borer) larvae assessed as feeding rate at 0.10% of diet dry weight after 5 days relative to control
Ostrinia nubilalis [29] = experiment: Antifeedant activity against Ostrinia nubilalis (European corn borer) larvae assessed as feeding rate at 0.20% of diet dry weight after 5 days relative to control
Ostrinia nubilalis [30] = experiment: Antifeedant activity against Ostrinia nubilalis (European corn borer) larvae assessed as feeding rate at 0.60% of diet dry weight after 5 days relative to control
Ostrinia nubilalis [31] = experiment: Insecticidal activity against Ostrinia nubilalis (European corn borer) larvae assessed as mortality at 0.10 to 0.80% of diet dry weight after 5 days relative to control
Ostrinia nubilalis [32] = experiment: Effect on growth of female Ostrinia nubilalis (European corn borer) larvae assessed as adult emergence at 0.001% of diet dry weight after 6 days relative to control
Ostrinia nubilalis [33] = experiment: Effect on growth of male Ostrinia nubilalis (European corn borer) larvae assessed as adult emergence at 0.10% of diet dry weight after 6 days relative to control
Ostrinia nubilalis [34] = experiment: Effect on growth of female Ostrinia nubilalis (European corn borer) larvae assessed as adult emergence at 1% of diet dry weight after 6 days relative to control
Ostrinia nubilalis [35] = experiment: Effect on growth of male Ostrinia nubilalis (European corn borer) larvae assessed as pupal duration at 0.001% of diet dry weight after 6 days relative to control
Ostrinia nubilalis [36] = experiment: Effect on growth of female Ostrinia nubilalis (European corn borer) larvae assessed as pupal duration at 0.01% of diet dry weight after 6 days relative to control
Ostrinia nubilalis [37] = experiment: Effect on growth of male Ostrinia nubilalis (European corn borer) larvae assessed as pupal duration at 0.10% of diet dry weight after 6 days relative to control
Ostrinia nubilalis [38] = experiment: Effect on growth of female Ostrinia nubilalis (European corn borer) larvae assessed as pupal duration at 1% of diet dry weight after 6 days relative to control
Ostrinia nubilalis [39] = experiment: Effect on growth of male Ostrinia nubilalis (European corn borer) larvae assessed as pupal duration at 1% of diet dry weight after 6 days relative to control
Ostrinia nubilalis [40] = experiment: Effect on growth of female Ostrinia nubilalis (European corn borer) larvae assessed as pupal weight at 0.001% of diet dry weight after 6 days relative to control
Ostrinia nubilalis [41] = experiment: Effect on growth of female Ostrinia nubilalis (European corn borer) larvae assessed as pupal weight at 0.01% of diet dry weight after 6 days relative to control
Ostrinia nubilalis [42] = experiment: Effect on growth of male Ostrinia nubilalis (European corn borer) larvae assessed as pupal weight at 0.01% of diet dry weight after 6 days relative to control

CC(C)=CCc1c2c(c3occ(-c4ccc(O)c(O)c4)c(=O)c3c1O)C=CC(C)(C)O2 [POMIFERIN]
Activity (Ostrinia nubilalis [1]): 17.7%
Activity (Ostrinia nubilalis [2]): 18.2%
Activity (Ostrinia nubilalis [3]): 31.5%
Activity (Ostrinia nubilalis [4]): 33.2%
Activity (Ostrinia nubilalis [5]): 36.9%
Activity (Ostrinia nubilalis [6]): 40.1%
Activity (Ostrinia nubilalis [7]): 20.7%
Activity (Ostrinia nubilalis [8]): 8.2%
Activity (Ostrinia nubilalis [9]): 23%
Activity (Ostrinia nubilalis [10]): 74 mg
Activity (Ostrinia nubilalis [11]): 109 mg
Activity (Ostrinia nubilalis [12]): 72 mg
Time (Ostrinia nubilalis [13]): 11.7 days
Time (Ostrinia nubilalis [14]): 10.7 days
Time (Ostrinia nubilalis [15]): 11.7 days
Time (Ostrinia nubilalis [16]): 10.9 days
Time (Ostrinia nubilalis [17]): 12.1 days
Time (Ostrinia nubilalis [18]): 11.1 days
Activity (Ostrinia nubilalis [19]): -7%
Activity (Ostrinia nubilalis [20]): -12%
Activity (Ostrinia nubilalis [21]): -12%
Activity (Ostrinia nubilalis [22]): -10%
Activity (Ostrinia nubilalis [23]): 13.3%
Activity (Ostrinia nubilalis [24]): 4.7%
Activity (Ostrinia nubilalis [25]): 5.3%
Activity (Ostrinia nubilalis [26]): 10%
Activity (Ostrinia nubilalis [27]): 12%
Activity (Ostrinia nubilalis [28]): -1%
Activity (Ostrinia nubilalis [29]): 34.6%
Activity (Ostrinia nubilalis [30]): 23.2%
mortality (Ostrinia nubilalis [31]): <=11%
Activity (Ostrinia nubilalis [32]): 50%
Activity (Ostrinia nubilalis [33]): 25%
Activity (Ostrinia nubilalis [34]): 67%
Time (Ostrinia nubilalis [35]): 7 days
Time (Ostrinia nubilalis [36]): 7 days
Time (Ostrinia nubilalis [37]): 7.5 days
Time (Ostrinia nubilalis [38]): 6.4 days
Time (Ostrinia nubilalis [39]): 6.7 days
Activity (Ostrinia nubilalis [40]): 85 mg
Activity (Ostrinia nubilalis [41]): 96 mg
Activity (Ostrinia nubilalis [42]): 72 mg

CC(C)=CCc1c2c(c3occ(-c4ccc(O)cc4)c(=O)c3c1O)C=CC(C)(C)O2 [OSAJIN]
Activity (Ostrinia nubilalis [1]): -3%
Activity (Ostrinia nubilalis [2]): 17%
Activity (Ostrinia nubilalis [3]): 7%
Activity (Ostrinia nubilalis [4]): -8%
Activity (Ostrinia nubilalis [5]): -12%
Activity (Ostrinia nubilalis [6]): 27.7%
Activity (Ostrinia nubilalis [7]): 27.5%
Activity (Ostrinia nubilalis [8]): 2.6%
Activity (Ostrinia nubilalis [9]): 1.9%
Activity (Ostrinia nubilalis [10]): 75 mg
Activity (Ostrinia nubilalis [11]): 109 mg
Activity (Ostrinia nubilalis [12]): 71 mg
Time (Ostrinia nubilalis [13]): 11.7 days
Time (Ostrinia nubilalis [14]): 11.4 days
Time (Ostrinia nubilalis [15]): 12.6 days
Time (Ostrinia nubilalis [16]): 11.4 days
Time (Ostrinia nubilalis [17]): 11.8 days
Time (Ostrinia nubilalis [18]): 11.4 days
Activity (Ostrinia nubilalis [19]): 6%
Activity (Ostrinia nubilalis [20]): 6.3%
Activity (Ostrinia nubilalis [21]): 1.9%
Activity (Ostrinia nubilalis [22]): 4%
Activity (Ostrinia nubilalis [23]): -1%
Activity (Ostrinia nubilalis [24]): -1%
Activity (Ostrinia nubilalis [25]): 4.7%
Activity (Ostrinia nubilalis [26]): 1.7%
Activity (Ostrinia nubilalis [27]): 3%
Activity (Ostrinia nubilalis [28]): -7%
Activity (Ostrinia nubilalis [29]): -8%
Activity (Ostrinia nubilalis [30]): 36%
mortality (Ostrinia nubilalis [31]): <=7%
Activity (Ostrinia nubilalis [32]): 54%
Activity (Ostrinia nubilalis [33]): 71%
Activity (Ostrinia nubilalis [34]): 85%
Time (Ostrinia nubilalis [35]): 7.2 days
Time (Ostrinia nubilalis [36]): 6.3 days
Time (Ostrinia nubilalis [37]): 7.6 days
Time (Ostrinia nubilalis [38]): 6.4 days
Time (Ostrinia nubilalis [39]): 7.3 days
Activity (Ostrinia nubilalis [40]): 103 mg
Activity (Ostrinia nubilalis [41]): 104 mg
Activity (Ostrinia nubilalis [42]): 75 mg
